These results are taken from patent US20030165579A1, “Euphorbia antiquorum extract, a pharmaceutical composition containing the same and methods for treatment of cancers” (priority 2002, published 2003).

Assay [1] deals with P-388 lymphocytic leukemia. Particulars: mice; cited from earlier work.
Another assay concerns COLO 205. The assay is described as follows: Cell proliferation assay (MTS) on COLO 205. Format: cell-based, Human. Particulars: for Cell Growth: positive control. Here is the method: (§1) The ability of extract of Euphorbia antiquorum described in Example 1 to inhibit the growth of five different human tumor cell lines was tested. The activity of Doxorubicin, a currently clinically used chemotherapeutic agent, against the tumor cell lines was tested as a control.
(§2) Five human tumor cell lines COLO 205, HT-29, U-937, MOLT4 and HA22T/VGH, were tested in this example (Table 3).
(§3) All five cancer cell lines were stored in liquid nitrogen. After thawing, cells were maintained as monolayer in appropriate medium (GIBCO, USA) supplemented with 10% fetal bovine serum, sodium bicarbonate, L-glutamine (2 mM), streptomycin (100 μg/ml) and penicillin-G (100 units/ml) in a humidified incubator at 37±1° C. and 5% CO2 in air.
(§4) Exponentially growing human cancer cells were seeded in an appropriate medium in 96-well ELISA microtiter plates. The number of cells for each cell line plated in 96-well plates was determined from the growth curve obtained in MTS assay (600 to 20,000 cells depending on cell line). These plates of adherent cells were incubated overnight. Six well cultures were used for each concentration of MH801 of the invention and for negative and positive control cultures.
(§5) MH801 was dissolved in culture medium. […] Since the solution prepared in culture medium at working concentration can be used directly rather than a stock solution at 200 fold concentration in DMSO, culture medium, instead of DMSO, was used as vehicle in the present invention. Maximum concentration for this assay was 10 mg/ml. Serial ten fold dilution was used in this invention, and therefore, the concentrations were 10, 1, 0.1, 0.01 and 0.001 mg/ml. After sufficient mixing, this solution was passed through filter of 0.2 μm pore size for sterility. Filtrate was serially diluted with culture medium to desired concentrations for treatment.
(§6) After three days of culture, the viable cells were counted by changing the culture medium containing a tetrazolium compound
(§7) (3-4,5-dimethylthiazol-2-yl)-5(3-carboxymethoxyphenyl)-2-(4-sulfophenyl)-2H-tetrazolium, inner salt and an electron coupling reagent to measure mitochondrial enzyme activity. The absorbance at […] was measured after 2 hours to 4 hours reaction time. Cell growth % is calculated using the following equations: [formula]
(§8) Doxourbicin was used as positive control for assay system evaluation and was prepared in dimethyl sulfoxide (Merck Art. 2931, Germany) as stock solution to be added to culture medium.

The test system of another assay is HA22T/VGH. Kind of assay: Cell proliferation assay (MTS) on HA22T/VGH. Format: cell-based, Human. Particulars: positive control. As for the experimental part:
as §1, §2, §3, §4, §5, §6, §7, §8

The test system of the next assay is U-937. Kind of assay: Cell proliferation assay (MTS) on U-937. Format: cell-based, Human. Particulars: for Cell Growth: positive control. Here is the method:
as §1, §2, §3, §4, §5, §6, §7, §8

The next assay has as its system MOLT 4. Kind of assay: Cell proliferation assay (MTS) on MOLT 4. It is filed as cell-based, Human. Particulars: for Cell Growth: positive control. Here is the method: as §1, §2, §3, §4, §5, §6, §7, §8
For the next assay, the system named is tumors. The conditions noted are these: chemotherapy, tumor control; cited from earlier work.
The next assay has as its system HT-29. The assay is described as follows: Cell proliferation assay (MTS) on HT-29. Format: cell-based, Human. The conditions noted are these: for Cell Growth: positive control. Here is the method:
as §1, §2, §3, §4
MH801 was dissolved in culture medium. […] Since the solution prepared in culture medium at working concentration can be used directly rather than a stock solution at 200 fold concentration in DMSO, culture medium, instead of DMSO, was used as vehicle in the present invention. Maximum concentration for this assay was 10 mg/ml. Serial ten fold dilution was used in this invention, and therefore, the concentrations were 10, 1, 0.1, 0.01 and 0.001 mg/ml. […]
as §6
(3-4,5-dimethylthiazol-2-yl)-5(3-carboxymethoxyphenyl)-2-(4-sulfophenyl)-2H-tetrazolium, inner salt and an electron coupling reagent to measure mitochondrial enzyme activity. The absorbance at […] was measured after 2 hours to 4 hours reaction time. Cell growth % is calculated using the following equations: [formula] […]

A further assay concerns hepatoma. The conditions noted are these: cited from earlier work.
Assay [2] concerns Ehrlich acites tumor cell. The conditions noted are these: Planta Med. 62, 322-5, 1996; cited from earlier work.

`CC1=C[C@]23C(=O)[C@@H](C=C(COC(=O)c4ccccc4)[C@@H](O)[C@]2(O)[C@H]1OC(=O)c1ccccc1)[C@H]1[C@@H](C[C@H]3C)C1(C)C` [Ingenol 3,20-debenzoate]: the “antileukemic activity against P-388 lymphocytic leukemia” value in assay [1] is “antileukemic activity”.

On to `CCCCCCCCCCCCCCCC(=O)OCC1=C[C@@H]2C(=O)[C@]3(C=C(C)[C@H](OC(=O)C(C)C(C)C)[C@@]3(O)[C@@H]1O)[C@H](C)C[C@]1(OC(=O)CCCCCCCCCCC)[C@H]2C1(C)C` (stereo partly shown) [13-hydroxyingenol-3-(2,3-dimethylbutanoate)-13-dodecanoate-20-hexadecanoate], for which the “antileukemic activity against P-388 lymphocytic leukemia” value in [1] is on record as “antileukemic effect”.

With `COc1cccc2c1C(=O)c1c(O)c3c(c(O)c1C2=O)C[C@@](O)(C(=O)CO)C[C@@H]3O[C@H]1C[C@H](N)[C@H](O)[C@H](C)O1` [Doxorubicin], the “Cell Growth” value with COLO 205 (COLO 205, 0.058 μg/ml) worked out at 63.2%; with COLO 205 (COLO 205, 0.58 μg/ml), 33.8%; with COLO 205 (COLO 205, 5.8 μg/ml), 8.23%; in the assay on HA22T/VGH (0.0058 μg/ml) it was 103%; in the assay on HA22T/VGH (0.058 μg/ml), 81.53%; in the assay on HA22T/VGH (0.58 μg/ml) it was 38.8%. Besides, the “Cell Growth” value with HA22T/VGH (5.8 μg/ml) is 14.4%; with U-937 (U-937, 0.0058 μg/ml) it was 100.5%; with U-937 (U-937, 0.058 μg/ml), 80.9%; with U-937 (U-937, 0.58 μg/ml) it was 3.7%; in the assay with U-937 (U-937, 5.8 μg/ml) it was 1.6%; in the assay on MOLT 4 (MOLT 4, 0.0058 μg/ml), 71.2%. Besides, the “Cell Growth” value with MOLT 4 (MOLT 4, 0.058 μg/ml) came out at 0%; in the assay with MOLT 4 (MOLT 4, 0.58 μg/ml) it was 0%; with MOLT 4 (MOLT 4, 5.8 μg/ml), 0%; in the assay on HT-29 (HT-29, 1.74 μg/ml), 35%; in the assay on HT-29 (HT-29, 3.48 μg/ml) it was 15.9%. In addition, the “antiproliferative effect” value with COLO 205 (COLO 205, positive control) is given as “very strong antiproliferative effect”; in the assay with HA22T/VGH it was “very strong antiproliferative effect”; in the assay on U-937 (U-937, positive control) it was “very strong antiproliferative effect”; in the assay with MOLT 4 (MOLT 4, positive control), “very strong antiproliferative effect”; with HT-29 (HT-29, positive control), “very strong antiproliferative effect”. The remission effect in the assay on tumors is reported as 15-23%.

Consider `C/C=C(\C)C(=O)O[C@@H]1[C@@H](C)[C@@]2(O)[C@@H](C=C(CO)C[C@]3(O)C(=O)C(C)=C[C@@H]23)[C@@H]2C(C)(C)[C@]12OC(=O)CCCCCCCCC` [phorbol 12-tiglate 13-decanoate], for which the “antileukemic activity against P-388 lymphocytic leukemia” value in assay [1] is “antileukemic activity”.

On to `O=c1[nH]cc(F)c(=O)[nH]1` [5-FU], for which the “patients responded to the medicine” value with hepatoma (62 hepatoma patients, hepatic intra-arterial infusion) is 48%. Also, the “survival, non-responders” value in the assay on hepatoma (hepatoma patients who did not respond) is 1.8 months. In addition, the “survival in average, responders” value in the assay with hepatoma (hepatoma patients who responded) was 6.9 months.

Consider 9,19-cycloart-23-ene-3 β,24-diol, for which the “inhibitory activity against Ehrlich acites tumor cell” value in [2] was “significant inhibitory activity”.

Regarding `CCCCCCCCCCCCCCCC(=O)OC[C@@]12O[C@@H]1[C@@H]1C(=O)[C@]3(C=C(C)[C@H](OC(=O)C(C)C(C)C)[C@@]3(O)[C@@H]2O)[C@H](C)C[C@]2(OC(=O)CCCCCCCCCCC)[C@H]1C2(C)C` (stereo partly shown) [6,7-epoxy-13-hydroxyingenol-3-(2,3-dimethylbutanoate)-13 dodecanoate-20-hexadecanoate], in assay [1], the “antileukemic activity against P-388 lymphocytic leukemia” value is on record as “antileukemic effect”.
